ChEMBL document CHEMBL4507272 (2021)

Columns and labels:
[1] = target: 5'-AMP-activated protein kinase catalytic subunit alpha-1 (Homo sapiens) (UniProt Q13131); settings: Compound concentration 1000.0 nM
[2] = target: Cyclin-dependent kinase 14 (Homo sapiens) (UniProt O94921); settings: Compound concentration 1000.0 nM
[3] = target: Delta-type opioid receptor (Homo sapiens) (UniProt P41143); settings: Compound concentration 10.0 uM
[4] = target: D(1B) dopamine receptor (Homo sapiens) (UniProt P21918); settings: Compound concentration 10.0 uM
[5] = target: Ribosomal protein S6 kinase alpha-2 (Homo sapiens) (UniProt Q15349); settings: Compound concentration 1000.0 nM
Chain of Ribosomal protein S6 kinase alpha-2 (Homo sapiens) (Q15349 whole entry): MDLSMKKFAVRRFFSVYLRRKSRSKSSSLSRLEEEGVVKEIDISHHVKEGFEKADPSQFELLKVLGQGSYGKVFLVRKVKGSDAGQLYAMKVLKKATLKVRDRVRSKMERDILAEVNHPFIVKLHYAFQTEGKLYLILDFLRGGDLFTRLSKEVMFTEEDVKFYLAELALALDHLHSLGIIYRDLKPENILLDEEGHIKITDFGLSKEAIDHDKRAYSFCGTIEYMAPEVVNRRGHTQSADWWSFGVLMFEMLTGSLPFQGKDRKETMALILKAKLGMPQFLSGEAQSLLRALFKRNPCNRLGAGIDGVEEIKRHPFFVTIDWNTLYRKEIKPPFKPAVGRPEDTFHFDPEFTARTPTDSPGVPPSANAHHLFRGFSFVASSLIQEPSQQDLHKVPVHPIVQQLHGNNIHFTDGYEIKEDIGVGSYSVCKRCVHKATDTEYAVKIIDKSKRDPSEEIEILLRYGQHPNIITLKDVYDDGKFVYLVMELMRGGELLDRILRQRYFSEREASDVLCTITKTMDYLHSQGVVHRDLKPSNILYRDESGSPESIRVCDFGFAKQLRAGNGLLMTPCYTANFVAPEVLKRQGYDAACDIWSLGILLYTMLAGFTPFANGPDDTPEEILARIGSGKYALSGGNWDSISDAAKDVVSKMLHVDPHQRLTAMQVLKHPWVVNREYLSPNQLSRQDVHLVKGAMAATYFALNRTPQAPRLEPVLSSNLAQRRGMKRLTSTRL

[6] = target: Glycogen synthase kinase-3 beta (Homo sapiens) (UniProt P49841); settings: Compound concentration 1000.0 nM
[7] = target: Tyrosine-protein kinase Yes (Homo sapiens) (UniProt P07947); settings: Compound concentration 1000.0 nM
[8] = target: Receptor-type tyrosine-protein kinase FLT3 (Homo sapiens) (UniProt P36888); settings: Compound concentration 1000.0 nM
[9] = target: Tyrosine-protein kinase JAK3 (Homo sapiens) (UniProt P52333); settings: Compound concentration 1000.0 nM
[10] = target: Mitogen-activated protein kinase kinase kinase 12 (Homo sapiens) (UniProt Q12852); settings: Compound concentration 1000.0 nM
[11] = target: Transient receptor potential cation channel subfamily M member 6 (Homo sapiens) (UniProt Q9BX84); settings: Compound concentration 1000.0 nM
[12] = target: cGMP-dependent protein kinase 2 (Homo sapiens) (UniProt Q13237); settings: Compound concentration 1000.0 nM
[13] = target: Ribosomal protein S6 kinase alpha-2 (Homo sapiens) (UniProt Q15349); settings: Compound concentration 1000.0 nM; remark: listed apart in the source
[14] = test system: Epidermal growth factor receptor (Homo sapiens), P00533 [UNDEFINED MUTATION]; settings: Compound concentration 1000.0 nM
[15] = target: 5-hydroxytryptamine receptor 1D (Homo sapiens) (UniProt P28221); settings: Compound concentration 10.0 uM
[16] = target: Tyrosine-protein kinase receptor Tie-1 (Homo sapiens) (UniProt P35590); settings: Compound concentration 1000.0 nM
[17] = target: Inhibitor of nuclear factor kappa-B kinase subunit epsilon (Homo sapiens) (UniProt Q14164); settings: Compound concentration 1000.0 nM
Chain of Inhibitor of nuclear factor kappa-B kinase subunit epsilon (Homo sapiens) (Q14164 whole entry): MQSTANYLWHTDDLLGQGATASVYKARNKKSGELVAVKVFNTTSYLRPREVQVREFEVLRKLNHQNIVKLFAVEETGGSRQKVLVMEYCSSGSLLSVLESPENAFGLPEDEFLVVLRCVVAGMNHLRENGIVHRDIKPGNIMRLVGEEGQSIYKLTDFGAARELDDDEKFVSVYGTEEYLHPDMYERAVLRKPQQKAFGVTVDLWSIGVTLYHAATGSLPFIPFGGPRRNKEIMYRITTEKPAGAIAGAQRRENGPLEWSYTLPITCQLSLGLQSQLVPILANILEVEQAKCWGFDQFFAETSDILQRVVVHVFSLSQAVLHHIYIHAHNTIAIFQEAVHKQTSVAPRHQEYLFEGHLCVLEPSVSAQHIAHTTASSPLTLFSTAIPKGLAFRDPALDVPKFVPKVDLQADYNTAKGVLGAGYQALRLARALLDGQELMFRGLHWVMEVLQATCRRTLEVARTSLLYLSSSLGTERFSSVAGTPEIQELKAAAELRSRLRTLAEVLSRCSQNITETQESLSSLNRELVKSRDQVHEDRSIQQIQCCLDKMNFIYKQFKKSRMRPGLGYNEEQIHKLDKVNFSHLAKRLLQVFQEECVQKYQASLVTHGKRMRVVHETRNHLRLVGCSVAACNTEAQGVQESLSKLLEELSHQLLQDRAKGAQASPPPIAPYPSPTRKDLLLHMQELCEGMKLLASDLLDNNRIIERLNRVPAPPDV

[18] = target: Mitogen-activated protein kinase 8 (Homo sapiens) (UniProt P45983); settings: Compound concentration 1000.0 nM
[19] = target: RAC-gamma serine/threonine-protein kinase (Homo sapiens) (UniProt Q9Y243); settings: Compound concentration 1000.0 nM
[20] = target: LIM domain kinase 1 (Homo sapiens) (UniProt P53667); settings: Compound concentration 1000.0 nM
Chain of LIM domain kinase 1 (Homo sapiens) (P53667 whole entry, looked up, the tested form may be a part): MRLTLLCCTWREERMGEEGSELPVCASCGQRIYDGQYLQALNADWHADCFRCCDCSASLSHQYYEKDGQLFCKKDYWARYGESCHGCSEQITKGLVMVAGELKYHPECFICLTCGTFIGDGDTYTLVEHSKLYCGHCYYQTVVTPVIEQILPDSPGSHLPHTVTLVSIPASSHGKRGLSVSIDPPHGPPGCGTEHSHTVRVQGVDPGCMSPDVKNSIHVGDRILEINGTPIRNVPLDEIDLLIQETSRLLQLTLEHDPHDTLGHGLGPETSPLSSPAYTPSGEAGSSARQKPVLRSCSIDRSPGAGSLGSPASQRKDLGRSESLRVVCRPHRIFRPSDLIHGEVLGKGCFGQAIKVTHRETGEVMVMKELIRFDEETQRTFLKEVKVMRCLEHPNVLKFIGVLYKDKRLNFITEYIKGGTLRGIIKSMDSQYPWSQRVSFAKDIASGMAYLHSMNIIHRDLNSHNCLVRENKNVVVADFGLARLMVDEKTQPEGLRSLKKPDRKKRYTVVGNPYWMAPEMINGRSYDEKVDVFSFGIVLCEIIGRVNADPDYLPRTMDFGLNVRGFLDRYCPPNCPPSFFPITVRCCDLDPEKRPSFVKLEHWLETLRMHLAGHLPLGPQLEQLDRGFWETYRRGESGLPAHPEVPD

[21] = target: Muscarinic acetylcholine receptor M1 (Homo sapiens) (UniProt P11229); settings: Compound concentration 10.0 uM
[22] = target: G protein-coupled receptor kinase 3 (Homo sapiens) (UniProt P35626); settings: Compound concentration 1000.0 nM
[23] = target: Protein kinase C iota type (Homo sapiens) (UniProt P41743); settings: Compound concentration 1000.0 nM
[24] = target: Serine/threonine-protein kinase 3 (Homo sapiens) (UniProt Q13188); settings: Compound concentration 1000.0 nM
[25] = target: Phosphatidylinositol 3-kinase C2 domain-containing subunit gamma (Homo sapiens) (UniProt O75747); settings: Compound concentration 1000.0 nM
[26] = target: Cyclin-dependent kinase 16 (Homo sapiens) (UniProt Q00536); settings: Compound concentration 1000.0 nM
[27] = target: Tyrosine-protein kinase Blk (Homo sapiens) (UniProt P51451); settings: Compound concentration 1000.0 nM
[28] = target: cAMP-dependent protein kinase catalytic subunit PRKX (Homo sapiens) (UniProt P51817); settings: Compound concentration 1000.0 nM
[29] = target: Ribosomal protein S6 kinase beta-1 (Homo sapiens) (UniProt P23443); settings: Compound concentration 1000.0 nM
[30] = target: Serine/threonine-protein kinase Sgk1 (Homo sapiens) (UniProt O00141); settings: Compound concentration 1000.0 nM
[31] = test system: Mast/stem cell growth factor receptor Kit (Homo sapiens), P10721 [D816V]; settings: Compound concentration 1000.0 nM
Chain of Mast/stem cell growth factor receptor Kit (Homo sapiens), P10721 [D816V] (P10721 whole entry D816V): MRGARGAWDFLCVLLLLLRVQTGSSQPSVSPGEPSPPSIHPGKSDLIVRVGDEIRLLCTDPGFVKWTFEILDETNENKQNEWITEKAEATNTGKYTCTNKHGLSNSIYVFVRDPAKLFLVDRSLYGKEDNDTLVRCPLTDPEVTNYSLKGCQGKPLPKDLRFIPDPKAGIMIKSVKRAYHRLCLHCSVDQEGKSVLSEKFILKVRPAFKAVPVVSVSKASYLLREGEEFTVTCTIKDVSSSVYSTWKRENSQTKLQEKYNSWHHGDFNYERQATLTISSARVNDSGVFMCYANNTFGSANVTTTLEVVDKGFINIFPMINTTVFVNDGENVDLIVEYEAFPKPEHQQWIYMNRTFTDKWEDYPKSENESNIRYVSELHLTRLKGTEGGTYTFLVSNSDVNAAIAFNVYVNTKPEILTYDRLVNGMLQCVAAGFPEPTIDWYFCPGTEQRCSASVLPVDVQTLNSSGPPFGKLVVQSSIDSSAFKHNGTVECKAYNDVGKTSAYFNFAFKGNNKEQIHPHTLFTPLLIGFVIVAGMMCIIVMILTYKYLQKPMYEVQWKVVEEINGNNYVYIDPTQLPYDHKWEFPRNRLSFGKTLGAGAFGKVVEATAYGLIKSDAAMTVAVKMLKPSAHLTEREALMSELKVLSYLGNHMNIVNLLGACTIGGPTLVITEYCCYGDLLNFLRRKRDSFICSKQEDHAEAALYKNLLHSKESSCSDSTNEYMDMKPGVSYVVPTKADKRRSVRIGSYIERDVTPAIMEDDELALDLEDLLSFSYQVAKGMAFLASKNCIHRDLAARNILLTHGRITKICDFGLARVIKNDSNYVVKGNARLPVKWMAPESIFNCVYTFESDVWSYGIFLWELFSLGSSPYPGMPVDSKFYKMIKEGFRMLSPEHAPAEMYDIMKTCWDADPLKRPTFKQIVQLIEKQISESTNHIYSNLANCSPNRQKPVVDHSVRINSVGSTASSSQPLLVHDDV

[32] = target: Myosin light chain kinase family member 4 (Homo sapiens) (UniProt Q86YV6); settings: Compound concentration 1000.0 nM
[33] = target: Activin receptor type-1B (Homo sapiens) (UniProt P36896); settings: Compound concentration 1000.0 nM
[34] = target: Glycogen synthase kinase-3 alpha (Homo sapiens) (UniProt P49840); settings: Compound concentration 1000.0 nM
[35] = target: Serine/threonine-protein kinase TAO2 (Homo sapiens) (UniProt Q9UL54); settings: Compound concentration 1000.0 nM
[36] = test system: eIF-2-alpha kinase GCN2 (Homo sapiens), Q9P2K8 [S808G]; settings: Compound concentration 1000.0 nM
[37] = test system: Mast/stem cell growth factor receptor Kit (Homo sapiens), P10721 [A829P]; settings: Compound concentration 1000.0 nM
Chain of Mast/stem cell growth factor receptor Kit (Homo sapiens), P10721 [A829P] (P10721 whole entry A829P): as the sequence (P10721 whole entry D816V) above, with V816D, A829P counted along it

[38] = target: TGF-beta receptor type-2 (Homo sapiens) (UniProt P37173); settings: Compound concentration 1000.0 nM
[39] = test system: Tyrosine-protein kinase ABL1 (Homo sapiens), P00519 [Q252H]; settings: Compound concentration 1000.0 nM
[40] = target: Mitogen-activated protein kinase kinase kinase kinase 4 (Homo sapiens) (UniProt O95819); settings: Compound concentration 1000.0 nM
Chain of Mitogen-activated protein kinase kinase kinase kinase 4 (Homo sapiens) (O95819 2-1239 limits assumed): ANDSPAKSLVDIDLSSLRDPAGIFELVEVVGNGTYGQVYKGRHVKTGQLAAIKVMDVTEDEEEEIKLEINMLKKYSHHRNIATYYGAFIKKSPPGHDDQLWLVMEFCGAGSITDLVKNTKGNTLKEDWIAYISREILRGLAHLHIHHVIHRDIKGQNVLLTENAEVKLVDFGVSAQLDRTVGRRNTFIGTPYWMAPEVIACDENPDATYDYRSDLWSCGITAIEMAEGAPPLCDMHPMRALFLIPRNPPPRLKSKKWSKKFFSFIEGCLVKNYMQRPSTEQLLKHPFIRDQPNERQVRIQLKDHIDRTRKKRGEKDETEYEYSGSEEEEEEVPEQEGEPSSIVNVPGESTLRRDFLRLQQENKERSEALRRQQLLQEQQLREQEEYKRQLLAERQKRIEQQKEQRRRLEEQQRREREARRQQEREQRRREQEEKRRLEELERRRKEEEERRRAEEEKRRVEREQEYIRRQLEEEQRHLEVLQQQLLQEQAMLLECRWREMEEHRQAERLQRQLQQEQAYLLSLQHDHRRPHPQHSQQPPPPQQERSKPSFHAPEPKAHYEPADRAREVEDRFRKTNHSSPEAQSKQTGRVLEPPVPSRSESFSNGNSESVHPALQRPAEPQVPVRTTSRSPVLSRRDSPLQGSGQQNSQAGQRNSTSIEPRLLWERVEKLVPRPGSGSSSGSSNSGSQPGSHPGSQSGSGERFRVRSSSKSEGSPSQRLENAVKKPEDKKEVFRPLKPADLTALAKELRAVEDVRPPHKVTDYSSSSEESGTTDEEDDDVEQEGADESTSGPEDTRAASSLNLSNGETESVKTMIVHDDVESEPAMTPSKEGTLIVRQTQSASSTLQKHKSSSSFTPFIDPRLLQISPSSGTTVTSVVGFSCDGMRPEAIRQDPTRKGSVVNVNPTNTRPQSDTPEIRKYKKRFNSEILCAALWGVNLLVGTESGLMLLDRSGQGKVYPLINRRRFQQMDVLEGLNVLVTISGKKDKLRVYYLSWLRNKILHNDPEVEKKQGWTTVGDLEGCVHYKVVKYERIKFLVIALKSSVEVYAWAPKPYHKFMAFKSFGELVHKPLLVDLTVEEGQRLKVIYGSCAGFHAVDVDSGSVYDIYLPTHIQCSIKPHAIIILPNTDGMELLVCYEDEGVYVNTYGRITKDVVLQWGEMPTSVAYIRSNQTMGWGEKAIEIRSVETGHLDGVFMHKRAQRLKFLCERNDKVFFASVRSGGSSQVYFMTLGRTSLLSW

[41] = test system: Leucine-rich repeat serine/threonine-protein kinase 2 (Homo sapiens), Q5S007 [G2019S]; settings: Compound concentration 1000.0 nM
[42] = target: Serine/threonine-protein kinase D1 (Homo sapiens) (UniProt Q15139); settings: Compound concentration 1000.0 nM
[43] = target: SRSF protein kinase 2 (Homo sapiens) (UniProt P78362); settings: Compound concentration 1000.0 nM
Chain of SRSF protein kinase 2 (Homo sapiens) (P78362 whole entry, looked up): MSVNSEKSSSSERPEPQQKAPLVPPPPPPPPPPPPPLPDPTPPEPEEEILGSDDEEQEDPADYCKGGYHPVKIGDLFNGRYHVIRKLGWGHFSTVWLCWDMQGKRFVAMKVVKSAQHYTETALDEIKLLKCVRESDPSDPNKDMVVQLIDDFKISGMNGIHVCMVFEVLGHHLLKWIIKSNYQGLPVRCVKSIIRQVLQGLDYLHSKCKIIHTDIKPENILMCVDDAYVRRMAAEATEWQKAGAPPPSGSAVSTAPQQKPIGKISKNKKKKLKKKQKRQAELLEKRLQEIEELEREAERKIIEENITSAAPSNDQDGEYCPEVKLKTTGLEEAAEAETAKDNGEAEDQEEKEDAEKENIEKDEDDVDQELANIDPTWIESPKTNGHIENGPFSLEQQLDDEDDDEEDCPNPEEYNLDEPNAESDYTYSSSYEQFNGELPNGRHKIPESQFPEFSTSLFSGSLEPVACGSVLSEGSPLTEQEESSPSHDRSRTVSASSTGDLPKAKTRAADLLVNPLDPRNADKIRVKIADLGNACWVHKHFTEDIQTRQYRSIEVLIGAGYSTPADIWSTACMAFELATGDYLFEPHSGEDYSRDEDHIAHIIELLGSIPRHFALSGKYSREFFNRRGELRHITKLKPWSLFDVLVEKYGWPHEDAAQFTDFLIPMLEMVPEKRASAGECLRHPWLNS

[44] = target: Serine/threonine-protein kinase 26 (Homo sapiens) (UniProt Q9P289); settings: Compound concentration 1000.0 nM
[45] = target: Ephrin type-A receptor 2 (Homo sapiens) (UniProt P29317); settings: Compound concentration 1000.0 nM

CC(=O)C1=C(C)N(c2cccc(C(F)(F)F)c2)C(=O)N[C@@H]1c1ccc(C#N)nc1 [BAY-678]
inactive: residual activity [1] 85.4% | residual activity [2] 91.7% | inhibition [3] -6.02% | inhibition [4] 0.739% | residual activity [5] 72.8% | residual activity [6] 100% | residual activity [7] 81.1% | residual activity [8] 82.9% | residual activity [9] 70.5% | residual activity [10] 86.8% | residual activity [11] 83.8% | residual activity [12] 100% | residual activity [13] 100% | residual activity [14] 80% | inhibition [15] 10.9% | residual activity [16] 89.9% | residual activity [17] 98.2% | residual activity [18] 100% | residual activity [19] 90.6% | residual activity [20] 70.2% | inhibition [21] -4.65% | residual activity [22] 92.6% | residual activity [23] 100% | residual activity [24] 93.1% | residual activity [25] 78.2% | residual activity [26] 100% | residual activity [27] 95.8% | residual activity [28] 100% | residual activity [29] 93.8% | residual activity [30] 100% | residual activity [31] 100% | residual activity [32] 100% | residual activity [33] 100% | residual activity [34] 95% | residual activity [35] 94.4% | residual activity [36] 56.9% | residual activity [37] 80.8% | residual activity [38] 67.8% | residual activity [39] 94.3% | residual activity [40] 99.3% | residual activity [41] 100% | residual activity [42] 95.7% | residual activity [43] 100% | residual activity [44] 100% | residual activity [45] 100%
